{"source": "PubChem BioAssay AID248", "about": "(DTP/NCI, 2004)", "system": "L1210 leukemia ip in BDF1 mice, survival T/C", "assay": "NCI In Vivo Anticancer Drug Screen. Data for tumor model L1210 Leukemia (intraperitoneal) in B6D2F1 (BDF1) mice", "settings": "endpoint: mean survival time, higher = longer survival", "how_it_was_run": "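Tumor was transplanted into mice, which were then dosed with test compound or vehicle alone. Survival was recorded for each group, and the treated figure was expressed relative to the control figure.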", "key": {"[1]": {"settings": "dose: 100.0 mg/kg/injection, schedule: Q01DX009 (ip), vehicle: Klucel (hydroxypropylcellulose) (HPC)"}, "[2]": {"settings": "dose: 200.0 mg/kg/injection, schedule: Q01DX009 (ip), vehicle: Klucel (hydroxypropylcellulose) (HPC)"}, "[3]": {"settings": "dose: 400.0 mg/kg/injection, schedule: Q01DX009 (ip), vehicle: Klucel (hydroxypropylcellulose) (HPC)"}, "[4]": {"settings": "dose: 50.0 mg/kg/injection, schedule: Q01DX001 (ip), vehicle: saline"}, "[5]": {"settings": "dose: 100.0 mg/kg/injection, schedule: Q01DX001 (ip), vehicle: saline"}, "[6]": {"settings": "dose: 200.0 mg/kg/injection, schedule: Q01DX001 (ip), vehicle: saline"}, "[7]": {"settings": "dose: 400.0 mg/kg/injection, schedule: Q01DX001 (ip), vehicle: saline"}}, "note": "Several values for one entry are separate records, joined by “and”; a condition that tells them apart may be missing. Equal entries are not always repeated. Toxic doses and inconclusive results are not listed.", "data": [{"smiles": "Fc1ccc(CSc2ncnc3c2ncn3C2CCCCO2)cc1", "note": "(stereo not given)", "values": [{"measurement": "T/C", "setting": "dose: 3.0 mg/kg/injection, schedule: Q01DX015 (ip), vehicle: carboxymethylcellulose (CMC)", "result": "97 % of control"}, {"measurement": "T/C", "setting": "dose: 6.0 mg/kg/injection, schedule: Q01DX015 (ip), vehicle: carboxymethylcellulose (CMC)", "result": "97 % of control"}, {"measurement": "T/C", "setting": "dose: 12.0 mg/kg/injection, schedule: Q01DX015 (ip), vehicle: carboxymethylcellulose (CMC)", "result": "98 % of control"}, {"measurement": "T/C", "setting": "dose: 25.0 mg/kg/injection, schedule: Q01DX015 (ip), vehicle: carboxymethylcellulose (CMC)", "result": "102 % of control"}, {"measurement": "T/C", "setting": "dose: 50.0 mg/kg/injection, schedule: Q01DX015 (ip), vehicle: carboxymethylcellulose (CMC)", "result": "101 % of control"}, {"measurement": "T/C", "setting": "dose: 100.0 mg/kg/injection, schedule: Q01DX001 (ip), vehicle: carboxymethylcellulose (CMC)", "result": "96 % of control"}, {"measurement": "T/C", "setting": "dose: 100.0 mg/kg/injection, schedule: Q01DX015 (ip), vehicle: carboxymethylcellulose (CMC)", "result": "103 % of control"}, {"measurement": "T/C", "setting": "dose: 200.0 mg/kg/injection, schedule: Q01DX001 (ip), vehicle: carboxymethylcellulose (CMC)", "result": "96 % of control"}, {"measurement": "T/C", "setting": "dose: 200.0 mg/kg/injection, schedule: Q01DX015 (ip), vehicle: carboxymethylcellulose (CMC)", "result": "119 % of control"}, {"measurement": "T/C", "setting": "dose: 400.0 mg/kg/injection, schedule: Q01DX001 (ip), vehicle: carboxymethylcellulose (CMC)", "result": "102 % of control"}, {"measurement": "T/C", "setting": "dose: 400.0 mg/kg/injection, schedule: Q01DX015 (ip), vehicle: carboxymethylcellulose (CMC)", "result": "166 % of control"}, {"measurement": "T/C", "setting": "dose: 800.0 mg/kg/injection, schedule: Q01DX001 (ip), vehicle: carboxymethylcellulose (CMC)", "result": "102 % of control"}, {"measurement": "T/C", "setting": "dose: 1600.0 mg/kg/injection, schedule: Q01DX001 (ip), vehicle: carboxymethylcellulose (CMC)", "result": "112 % of control"}]}, {"smiles": "C1=NOC2c3ccc4ccccc4c3CCC12", "note": "(stereo not given)", "values": [{"measurement": "T/C", "setting": "[1]", "result": "95 % of control"}, {"measurement": "T/C", "setting": "[2]", "result": "93 % of control"}, {"measurement": "T/C", "setting": "[3]", "result": "93 % of control"}]}, {"smiles": "CC(=O)Nc1ccc(S(=O)(=O)Nc2cc(C)ns2)cc1", "values": [{"measurement": "T/C", "setting": "dose: 100.0 mg/kg/injection, schedule: Q04DX003 (ip), vehicle: saline", "result": "92 % of control"}, {"measurement": "T/C", "setting": "dose: 200.0 mg/kg/injection, schedule: Q04DX003 (ip), vehicle: saline", "result": "96 % of control"}, {"measurement": "T/C", "setting": "dose: 400.0 mg/kg/injection, schedule: Q04DX003 (ip), vehicle: saline", "result": "100 % of control"}]}, {"smiles": "CC(=O)OC1COC(n2cnc3c(=O)[nH]cnc32)C(OC(C)=O)C1OC(C)=O", "note": "(stereo not given)", "values": [{"measurement": "T/C", "setting": "[4]", "result": "97 % of control"}, {"measurement": "T/C", "setting": "[5]", "result": "97 % of control and 115 % of control and 101 % of control"}, {"measurement": "T/C", "setting": "[6]", "result": "86 % of control and 109 % of control and 103 % of control"}, {"measurement": "T/C", "setting": "[7]", "result": "95 % of control"}]}, {"smiles": "COC(=O)c1c2ccccc2[n+](C)c2ccccc12", "values": [{"measurement": "T/C", "setting": "dose: 12.5 mg/kg/injection, schedule: Q04DX003 (ip), vehicle: saline", "result": "96 % of control"}, {"measurement": "T/C", "setting": "dose: 25.0 mg/kg/injection, schedule: Q04DX003 (ip), vehicle: saline", "result": "100 % of control"}, {"measurement": "T/C", "setting": "dose: 50.0 mg/kg/injection, schedule: Q04DX003 (ip), vehicle: saline", "result": "102 % of control"}]}, {"smiles": "O=C1O/C(=C(\\C(=O)O)c2ccccc2)C(O)=C1c1ccccc1", "values": [{"measurement": "T/C", "setting": "[1]", "result": "113 % of control"}, {"measurement": "T/C", "setting": "dose: 100.0 mg/kg/injection, schedule: Q04DX003 (ip), vehicle: Klucel (hydroxypropylcellulose) (HPC)", "result": "103 % of control"}, {"measurement": "T/C", "setting": "[2]", "result": "101 % of control"}, {"measurement": "T/C", "setting": "dose: 200.0 mg/kg/injection, schedule: Q04DX003 (ip), vehicle: Klucel (hydroxypropylcellulose) (HPC)", "result": "97 % of control"}, {"measurement": "T/C", "setting": "[3]", "result": "102 % of control"}, {"measurement": "T/C", "setting": "dose: 400.0 mg/kg/injection, schedule: Q04DX003 (ip), vehicle: Klucel (hydroxypropylcellulose) (HPC)", "result": "108 % of control"}]}, {"smiles": "O=c1[nH]c(=O)c2[nH]c(Br)c(Br)c2[nH]1", "values": [{"measurement": "T/C", "setting": "[5]", "result": "93 % of control"}, {"measurement": "T/C", "setting": "[6]", "result": "96 % of control"}, {"measurement": "T/C", "setting": "[7]", "result": "93 % of control"}]}, {"smiles": "O=c1[nH]c2ccc(Cl)cc2c(=O)o1", "values": [{"measurement": "T/C", "setting": "[5]", "result": "92 % of control"}, {"measurement": "T/C", "setting": "dose: 100.0 mg/kg/injection, schedule: Q01DX009 (ip), vehicle: saline", "result": "100 % of control"}, {"measurement": "T/C", "setting": "[6]", "result": "95 % of control"}, {"measurement": "T/C", "setting": "dose: 200.0 mg/kg/injection, schedule: Q01DX009 (ip), vehicle: saline", "result": "98 % of control"}, {"measurement": "T/C", "setting": "[7]", "result": "101 % of control"}, {"measurement": "T/C", "setting": "dose: 400.0 mg/kg/injection, schedule: Q01DX009 (ip), vehicle: saline", "result": "90 % of control"}]}, {"smiles": "CCCCCCCNC(C)=O", "values": [{"measurement": "T/C", "setting": "dose: 25.0 mg/kg/injection, schedule: Q01DX001 (ip), vehicle: saline", "result": "99 % of control"}, {"measurement": "T/C", "setting": "dose: 25.0 mg/kg/injection, schedule: Q01DX009 (ip), vehicle: saline", "result": "106 % of control"}, {"measurement": "T/C", "setting": "[4]", "result": "116 % of control"}, {"measurement": "T/C", "setting": "dose: 50.0 mg/kg/injection, schedule: Q01DX009 (ip), vehicle: saline", "result": "95 % of control"}, {"measurement": "T/C", "setting": "dose: 100.0 mg/kg/injection, schedule: Q01DX001 (ip), vehicle: saline with Tween-80", "result": "92 % of control"}, {"measurement": "T/C", "setting": "[5]", "result": "99 % of control"}]}, {"smiles": "COc1ccc(/C=C2\\CSC(=O)NC2=O)cc1OC", "values": [{"measurement": "T/C", "setting": "[5]", "result": "104 % of control"}, {"measurement": "T/C", "setting": "[6]", "result": "106 % of control"}, {"measurement": "T/C", "setting": "[7]", "result": "106 % of control"}]}]}
